From patent publication US9079977B2, “Anti-trypanosomal peptides and uses thereof” (priority 2009, dated 2015) come the findings set out here.

Where a SMILES comes first, the peptide text is derived from it.

Data set [1] has as its system Human embryonic kidney cells (HEK). Briefly: Mammalian cell viability assay (trypan blue exclusion), Example 2. Type of data set: cell-based. The conditions noted are these: 80-160 μM, 2 h at 37° C. The method, then: (§1) Mammalian cell viability and hemolysis assays. Human embryonic kidney cells (HEK) (ATCC CRL-1573) and LNCaP prostate cancer cells (ATCC CRL-1740) were utilized for cell viability assays. Human embryonic kidney cells were cultured in Dulbecco's Modified Eagles Medium, high glucose (Thermo Scientific, cat #SH30243.01) with 10% fetal bovine serum at 37° C. and 5% CO2. Prostate cancer cells were cultured in RPM-1640 medium (Invitrogen, cat #A10491-01) with 10% fetal bovine serum at 37° C. and 5% CO2. In both cases, assays were performed by aliquoting cells into 96 well plates at approximately 60% confluency and allowing the cells to adhere for two hours. Cells were then incubated with serial dilutions of SHP-1, or the relevant control, in the corresponding media for two hours at 37° C. Cell viability was determined by the ability of live cells to exclude trypan blue. The cells were incubated with 0.1% trypan blue for 10 minutes and examined microscopically for cytoplasmic staining. The potential for SHP-1 to induce hemolysis was assayed by monitoring hemoglobin (Hb) release from freshly collected human erythrocytes that had been washed and incubated with SHP-1 in PBS. The Hb concentration of the supernatant was determined by the absorbance at 412 nm and compared to 100% hemolysis acquired by hypotonic lysis. […]

Data set [2] deals with LNCaP prostate cancer cells. The data set is described as above. It counts as cell-based, human. The settings on record: 80-160 μM, 2 h at 37° C. As for the experimental part: as §1
The conditions of data set [3]: not told.
Procedure: Calcein release assays. […] Briefly, liposomes were diluted 1:1000 into 50 mM Tris, pH 7.0 and calcein fluorescence was monitored at 513 nm when excited at 484 nm. The percent calcein release was calculated relative to the 100% fluorescence intensity, achieved by the addition of 0.01% Triton X-100.
Data set [4] has as its system BSF T. b. brucei. Briefly: Trypanosome killing assay, Example 4. Type of data set: cell-based, Trypanosoma brucei brucei. The conditions noted are these: two hour killing assay, 37° C. The method, then:
Trypanosome Killing Assays. Light microscopy based trypanosome killing assays were performed as previously described in detail (Harrington et al., 2010, J Biol Chem; 285(37):28659-66; Widener et al., 2007, PLoS Pathog; 3(9):1250-61; Shiflett et al., 2007, J Eukaryot Microbiol; 54(1):18-21; and Hajduk et al., 1989, J Biol Chem; 264(9):5210-7). Metacyclic T. b. brucei TREU 667 were obtained from dissection of the salivary glands of infected tsetse flies. Newly hatched Glossina morsitans morsitans (24-48 hours post eclosion) were fed defibrinated horse blood containing 2×10^6 ml^−1 trypanosomes and maintained at 25° C. in 75% relative humidity and fed maintenance blood meals three times per week. Following day 20-30, flies were harvested and salivary glands were dissected out and washed in HMI 9 media containing 10% fetal bovine serum. Metacyclic cells were collected via centrifugation and maintained in HMI 9 media with 10% fetal bovine serum at 37° C. in 5% CO2 until use. Killing assays were conducted with 1×10^4 cells/ml in HMI 9 media containing 10% fetal bovine serum. Trypanosoma vivax and T. congolense were grown from stabilites in donor ICR mouse (Harlan, United Kingdom). Parasites were harvested from mice by terminal exsanguination and passage of infected blood through a small anion exchange column. Cells were maintained in HMI 9 with 20% goat serum at 37° C. in 5% CO2 until use. Killing assays were performed with 1×10^7 cells/ml in HMI 9 media with either 20% goat serum, in the case of T. vivax and T congolense, and 10% fetal bovine serum, for T. b. brucei. Cells were incubated at 37° C. for 2 hours and dead parasites were scored visually. All were conducted in at least duplicate, and data points are the averages with standard deviations.

Data set [5] concerns BSF T. b. brucei. Put plainly: Flow cytometry binding of FITC-labeled SHP. Type of data set: cell-based, Trypanosoma brucei brucei. The settings on record: 8 μM FITC-labeled peptide. The method, then: Flow Cytometry. Peptide binding to BSF T. b. brucei was monitored by flow cytometry. Binding assays were performed with 3×10^6 cells/ml in HMI 9 plus 10% fetal bovine serum at 25° C. FITC-labeled SHP-1 or SHP-3 was added to a final concentration of 8 μM and 50,000 cells were immediately counted on a CyAn ADP flow cytometer (Dako). Data were analyzed with FlowJo software (TreeStar Inc.).
For orientation: Flow cytometry measures light scatter and fluorescence of single cells or particles in a stream.

Data set [6] concerns plasma membrane of live BSF T. b. brucei. Put plainly: Anisotropy assays with DPH and TMA-DPH, Example 4. Type of data set: cell-based, Trypanosoma brucei brucei. The settings on record: 37° C. The method, then:
Anisotropy Assays. The plasma membrane rigidity of live T. b. brucei was determined by measuring the fluorescence depolarization of diphenyl-1,3,5-hexatriene p-toluenesulfonate (DPH) or 1-(4-trimethylammoniumphenyl)-6-diphenyl-1,3,5-hexatriene p-toluenesulfonate (TMA-DPH; Invitrogen T204). Cells were washed 3 times with and resuspended in PBS at a density of 3×10^6 cells/ml. The anisotropic probes were added to a final concentration of […] and allowed to intercalate into the cell membrane for one hour in the dark. Anisotropic values were acquired via the software function of a PerkinElmer Life Sciences LS55 spectrofluorometer. Samples were excited at 358 nm, and emission was read at 430 nm, both with 10-nm slit widths. Temperature was maintained at 37° C. by means of the PerkinElmer LS55 Biokinetics accessory. Data were corrected for light scattering with an unlabeled sample of cells, and anisotropy was calculated according to the equation r=(IVV−GIVH)/(IVV+2GIVH), where r is the anisotropy value, IVV is the emission intensity acquired with the excitation- and emission-polarizing filters set vertically, G is the instrument correction factor, and IVH is the emission intensity acquired with the excitation-polarizing filter set vertically and the emission-polarizing filter set horizontally. All assays were conducted at 37° C. […]

Data set [7] deals with BSF T. b. brucei. Put plainly: Trypanosome motility by video microscopy, Example 4. Type of data set: cell-based, Trypanosoma brucei brucei. The conditions noted are these: 40 μM peptide, 37° C. The method, then:
Trypanosome motility. All images and videos were acquired with an Axio Observer Z1 equipped with an AxioCam MRm controlled by AxioVision 4.6 software. Videos were acquired with live cells at a density of 1×10^7 cells/ml in HMI 9 media with 10% fetal bovine serum, incubated with 40 µM SHP-1 at 37° C. Videos were recorded at magnification 63× with 50-ms acquisition times. The motility of BSF trypanosomes was scored visually from video playback of trypanosomes scanned throughout 10 μl aliquots. Data is shown as the average of triplicate trials with standard deviations.

In the case of `CC[C@H](C)[C@H](NC(=O)[C@@H](NC(=O)[C@H](C)NC(=O)CNC(=O)[C@H](CC(C)C)NC(=O)[C@H](CC(=O)O)NC(=O)[C@@H](N)CO)C(C)C)C(=O)N[C@@H](CO)C(=O)N[C@@H](CC(C)C)C(=O)N[C@@H](CC(C)C)C(=O)N[C@@H](CC(C)C)C(=O)N[C@@H](Cc1c[nH]c2ccccc12)C(=O)NCC(=O)N[C@@H](CCCNC(=N)N)C(=O)N[C@@H](CCC(N)=O)C(=O)N[C@@H](CC(C)C)C(=O)N[C@@H](Cc1ccccc1)C(=O)N[C@@H](C)C(=O)O` [SHP-1, SDLGAVISLLLWGRQLFA] (H-SDLGAVISLLLWGRQLFA-OH; N-terminus and C-terminus assumed), the “cell death of HEK cells (morphology, trypan blue exclusion)” value in data set [1] was “did not result in cell death”. In addition, the “cell death of LNCaP cells (morphology, trypan blue exclusion)” value in data set [2] was “did not result in cell death”. Besides, in data set [3], the “permeabilization of homogenous symmetric saturated PC liposomes” value is “not permeabilized” and the “permeabilization of symmetric 15:0 PC or DPPC liposomes above Tm” value is on record as “resulted in sensitivity to permeabilization”.
Consider “FHQIWAALLYFYGIILNSIY (amino acid sequence of small hydrophobic peptide -3 (SHP-3)) [Small hydrophobic peptide 3, derived from an apolipoprotein]”, for which the “killing of BSF T. brucei (trypanocidal activity)” value in the data set on BSF T. b. brucei [4] is listed as “no killing was seen”. In addition, the “binding to BSF T. brucei” value in the data set on BSF T. b. brucei [5] is given as “binding to BSF T. brucei”. Moreover, the “rigidity of the interfacial region of the plasma membrane (TMA-DPH)” value in data set [6] is given as “increased the rigidity of the interfacial region of the plasma membrane”. Also, in the data set on BSF T. b. brucei [7], the “motility phenotype (hyperactivation, constriction)” value is listed as “does cause initial hyperactivation of BSF T. b. brucei, however subsequent constriction of motility does not occur”.
